PMC10687288, “Chalcones: The flavonoid derivatives synthesis, characterization, their antioxidant and in vitro/in vivo antidiabetic potentials” (Heliyon, 2023)

Biological target: α-glucosidase
Assay: p-nitrophenyl-α-D-glucopyranoside hydrolysis assay, absorbance […] nm
Type: biochemical

O=C(/C=C/c1ccccc1Cl)c1ccc(Br)cc1 [JA1, (E)-1-(4-bromophenyl)-3-(2-chlorophenyl) prop-2-ene-1one]
Glucosidase IC50: 85.11 ± 1.29 µg/mL

O=C(/C=C/c1cccc(Cl)c1)c1ccc(Br)cc1 [JA2, (E)-1-(4-bromophenyl)-3-(3-chlorophenyl) prop-2-ene-1one]
Glucosidase IC50: 97.24 ± 1.48 µg/mL

O=C(/C=C/c1ccc(Cl)cc1)c1ccc(Br)cc1 [JA3, (E)-1-(4-bromophenyl)-3-(4-chlorophenyl) prop-2-ene-1one]
Glucosidase IC50: 63.04 ± 1.17 µg/mL
